Results from publication PMC12682859, “Interconnected roles of mitochondrial carrier proteins ANT, PiT, and UCPs in proton transport” (Frontiers in Molecular Biosciences, 2025).

Experiments:
[1] = biological target: T1, UCP4:ANT1 heterotetramer (1:1) (Homo sapiens; Bos taurus, UniProt O95847+P02722); test: SPQ fluorescence proton efflux in proteoliposomes; assay type: biochemical; conditions: read-out: % inhibition at 5 uM
T1 construct: gene SLC25A27; co-reconstituted 1:1 in liposomes from purified N-terminally His6-tagged monomers (bovine ANT1, human UCP4); heterotetramer
T1 sequence (O95847 1-323): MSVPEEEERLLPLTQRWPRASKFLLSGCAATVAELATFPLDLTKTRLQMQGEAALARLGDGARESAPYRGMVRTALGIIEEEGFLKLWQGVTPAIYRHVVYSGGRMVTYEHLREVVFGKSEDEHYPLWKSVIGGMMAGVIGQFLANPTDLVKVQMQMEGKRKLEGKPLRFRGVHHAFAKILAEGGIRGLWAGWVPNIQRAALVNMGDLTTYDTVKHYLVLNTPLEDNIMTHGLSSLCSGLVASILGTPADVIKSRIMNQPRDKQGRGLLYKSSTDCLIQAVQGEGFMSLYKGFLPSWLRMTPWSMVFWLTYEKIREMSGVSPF
T1 sequence (P02722 2-298): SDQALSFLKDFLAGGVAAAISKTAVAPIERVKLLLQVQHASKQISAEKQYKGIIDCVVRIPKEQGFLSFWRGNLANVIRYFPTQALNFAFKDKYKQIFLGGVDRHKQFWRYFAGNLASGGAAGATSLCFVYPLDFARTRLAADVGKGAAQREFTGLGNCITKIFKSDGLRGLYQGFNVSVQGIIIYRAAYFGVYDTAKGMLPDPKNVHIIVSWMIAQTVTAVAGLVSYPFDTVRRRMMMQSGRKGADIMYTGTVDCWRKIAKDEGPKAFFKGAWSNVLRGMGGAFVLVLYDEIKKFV

[2] = biological target: T2, UCP2 (Homo sapiens, UniProt P55851); test: biochemical; set-up: SPQ fluorescence quenching assay of proton transport by carriers reconstituted in EYPC liposomes, palmitic acid activated; conditions: EYPC liposomes + 2.5% cardiolipin, 100 uM palmitic acid
T2 construct: full length, N-terminal His6 tag kept, pelB leader removed; E. coli membranes; homotetramer in liposomes
T2 sequence (P55851 1-309): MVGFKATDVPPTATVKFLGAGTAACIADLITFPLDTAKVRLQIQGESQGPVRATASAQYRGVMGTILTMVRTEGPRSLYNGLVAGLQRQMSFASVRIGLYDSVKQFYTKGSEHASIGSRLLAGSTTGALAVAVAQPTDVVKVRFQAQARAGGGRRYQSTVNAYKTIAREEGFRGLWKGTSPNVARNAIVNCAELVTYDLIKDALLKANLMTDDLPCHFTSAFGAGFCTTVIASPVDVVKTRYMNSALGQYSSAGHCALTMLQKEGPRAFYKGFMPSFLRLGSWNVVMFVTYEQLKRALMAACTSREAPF
Experimental: (§1) FIGURE 8 Proton transport and CATR-inhibited proton transport rates of reconstituted UCP2, UCP4, ANT1, co-reconstituted UCP4:ANT1 and UCP2:ANT1 (1:1 stoichiometric ratio) in liposomes made from EYPC containing 2.5% added CL, in the presence of 100 μM palmitic acid (PA). Each experiment included final concentrations of 1 μM total combined protein and 1 mM lipid. Dark bars represent the total proton transport rate in the absence of CATR, shaded Gray bars represent the proton transport rate in the presence of 5 μM CATR (for corresponding numerical values, see Supplementary Table S6). Each bar represents the average transport rate of at least 10 repeats (from at least two independent experiments), and the error bars show the standard deviations. Asterisks (*) indicate a statistically significant difference (p < 0.05) between the total proton efflux and CATR-inhibited efflux within each combination. Note that the proton transport data for UCP4, UCP2, and ANT1 are reproduced from Figure 5. For the 1:1 combination of UCP4 and ANT1 heterotetramers, to further confirm the cooperativity between ANT1 and UCP4 dimers, we examined proton transport in the presence of the known ANT inhibitor CATR. CATR is an irreversible substrate inhibitor of ANT that blocks its ADP-ATP exchange function ([Klingenberg et al., 1975]). We surmised that irreversible inhibition of the nucleotide exchange activity of ANT and prevention of its alternating transport function could also affect the cooperativity of proton transport activity of ANT1-UCP4 heterotetramers. To verify this hypothesis, we first examined the inhibitory effect of CATR on the proton transport activity of individually reconstituted UCP4 and ANT1. […] A similar inhibitory effect of CATR on the proton transport function of ANT has been reported in a previous study ([Kreiter et al., 2021]). […] Supplementary Material . Figure S1. Schematic of proton transport assay and data analysis. […]

[3] = biological target: T3, UCP2:ANT1 heterotetramer (1:1) (Homo sapiens; Bos taurus, UniProt P02722+P55851); test: biochemical; set-up: SPQ fluorescence quenching assay of proton transport by carriers reconstituted in EYPC liposomes, palmitic acid activated; conditions: EYPC liposomes + 2.5% cardiolipin, 100 uM palmitic acid
T3 construct: co-reconstituted 1:1 in liposomes from purified N-terminally His6-tagged monomers (bovine ANT1, human UCP2); heterotetramer
T3 sequence (P55851 1-309): T2 sequence (P55851 1-309)
T3 sequence (P02722 2-298): T1 sequence (P02722 2-298)
Experimental: as §1

[4] = biological target: T4, UCP4 (Homo sapiens, UniProt O95847); test: biochemical; set-up: SPQ fluorescence quenching assay of proton transport by carriers reconstituted in EYPC liposomes, palmitic acid activated; conditions: EYPC liposomes + 2.5% cardiolipin, 100 uM palmitic acid
T4 construct: gene SLC25A27; full length, N-terminal His6 tag kept, pelB leader removed; E. coli membranes; homotetramer in liposomes
T4 sequence (O95847 1-323): T1 sequence (O95847 1-323)
Experimental: as §1

[5] = biological target: T5, ANT1 (Bos taurus, UniProt P02722); test: biochemical; set-up: gene SLC25A4; full length, N-terminal His6 tag kept, pelB leader removed; E. coli membranes; mainly monomer in liposomes; SPQ fluorescence quenching assay of proton transport by carriers reconstituted in EYPC liposomes, palmitic acid activated; conditions: EYPC liposomes + 2.5% cardiolipin, 100 uM palmitic acid
T5 sequence (P02722 2-298): T1 sequence (P02722 2-298)
Experimental: FIGURE 8 Proton transport and CATR-inhibited proton transport rates of reconstituted UCP2, UCP4, ANT1, co-reconstituted UCP4:ANT1 and UCP2:ANT1 (1:1 stoichiometric ratio) in liposomes made from EYPC containing 2.5% added CL, in the presence of 100 μM palmitic acid (PA). Each experiment included final concentrations of 1 μM total combined protein and 1 mM lipid. Dark bars represent the total proton transport rate in the absence of CATR, shaded Gray bars represent the proton transport rate in the presence of 5 μM CATR (for corresponding numerical values, see Supplementary Table S6). Each bar represents the average transport rate of at least 10 repeats (from at least two independent experiments), and the error bars show the standard deviations. Asterisks (*) indicate a statistically significant difference (p < 0.05) between the total proton efflux and CATR-inhibited efflux within each combination. Note that the proton transport data for UCP4, UCP2, and ANT1 are reproduced from Figure 5. For the 1:1 combination of UCP4 and ANT1 heterotetramers, to further confirm the cooperativity between ANT1 and UCP4 dimers, we examined proton transport in the presence of the known ANT inhibitor CATR. CATR is an irreversible substrate inhibitor of ANT that blocks its ADP-ATP exchange function ([Klingenberg et al., 1975]). […]

## C=C1[C@@H]2CC[C@H]3[C@]4(C)C[C@H](O[C@@H]5O[C@H](CO)[C@@H](OS(=O)(=O)O)[C@H](OS(=O)(=O)O)[C@H]5OC(=O)CC(C)C)CC(C(=O)O)(C(=O)O)[C@H]4CC[C@]3(C2)[C@H]1O [CATR, carboxyatractyloside]
[1]
  inhibition at 5 µM: ~71%
[2]
  inhibition at 5 µM: 1.7%
[3]
  inhibition at 5 µM: 73.6%
[4]
  inhibition at 5 µM: 2.7%
[5]
  inhibition at 5 µM: 70.1%
